Data published in PubChem BioAssay (NCI).
Several values for one entry are separate records, joined by “and”; a condition that tells them apart may be missing. Equal values may be shown once.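 48-hour exposure; five concentrations; linearly interpolated endpoints. Here, GI50 denotes the concentration required for 50% inhibition of growth. TGI is the concentration that stops growth completely.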 Where a SMILES comes first, the peptide text is derived from it. [ ]: non-standard residue; d: D form. The star is where a group is joined. NMeF = CN[CH](Cc1ccccc1)C(=O)O; NMeV = CN[CH](C(=O)O)C(C)C; Boc = CC(C)(C)OC(=O)*; OBn = c1ccc(CO*)cc1

What was measured:
Test in all cases: growth of human tumour cells (NCI), 48 h
[1] = test system: SF-539 CNS
[2] = test system: IGROV1 ovarian
[3] = test system: NCI-H226 lung
[4] = test system: SW-620 colon
[5] = test system: SK-MEL-28 melanoma
[6] = test system: DLD-1 colon
[7] = test system: SK-MEL-2 melanoma
[8] = test system: LXFL 529 NSCLC
[9] = test system: MALME-3M melanoma
[10] = test system: T-47D breast

SMILES | TGI [1] | TGI [2] | TGI [3] | TGI [4] | TGI [5] | TGI [6] [µM] | TGI [7] | TGI [8] [µM] | TGI [9] | GI50 [10] [µM] | TGI [10] [µM] | GI50 [9] | GI50 [1] | GI50 [2] | GI50 [3] | GI50 [4] | GI50 [5] | GI50 [7] [µM]
COc1cc2c(c3oc(-c4ccc5c(c4)OCO5)c(O)c(=O)c13)CCC(C)(C)O2 | > 100 µM | > 100 µM | > 100 µM | > 100 µM | > 100 µM | > 100 | > 100 µM | > 100 |  |  |  |  |  |  |  |  |  | 
COc1cc(C2[C@H]3C(=O)N(c4ccc(Cc5ccc(N6C(=O)[C@@H]7ON(c8ccccc8)C(c8cc(OC)c(OC)c(OC)c8)[C@@H]7C6=O)cc5)cc4)C(=O)[C@H]3ON2c2ccccc2)cc(OC)c1OC (some centres undefined) | > 100 µM | > 100 µM | > 100 µM | > 100 µM | > 100 µM | > 100 | > 100 µM |  | > 100 µM |  |  |  |  |  |  |  |  | 
COc1ccc(C(=O)Nc2ncc(Cc3ccc(F)cc3)s2)cc1 | 0.414 µM | 97.7 µM | > 100 µM | > 100 µM | > 100 µM |  | > 100 µM |  | > 62.8 µM | 0.06 | > 100 | 0.0855 µM | 0.0448 µM | 0.0957 µM | 0.0829 µM | 0.0449 µM | 2.16 µM | 3.95
COc1ccc2nc(-c3ccccc3)cc(Nc3ccc(/C(C)=N/O)cc3)c2c1 | 3.05 µM | > 22 µM | 4.39 µM | > 22.1 µM | > 100 µM |  | > 100 µM |  | 9.92 µM | 6.18 | > 100 | 2.8 µM | 0.35 µM | 13.4 µM | 1.95 µM | 2.72 µM | 3.13 µM | 88.4
CC1=C(C(=O)Nc2ccccc2C)C(c2ccc(N(C)C)cc2)C(C(=O)Nc2ccccc2C)=C(C)N1 | > 100 µM | > 100 µM | > 100 µM | > 100 µM | > 100 µM | > 100 | > 100 µM |  | > 100 µM |  |  |  |  |  |  |  |  | 
Cc1cc(N(CCCNc2ccnc3cc(Cl)ccc23)Cc2cccs2)nc(Cl)n1 | 23.1 µM | 18.9 µM | 31.1 µM | 18.9 µM | 19 µM |  | 29.6 µM |  | 13.5 µM | 1.99 | 20.6 | 3.06 µM | 7.02 µM | 2.9 µM | 10.2 µM | 3.45 µM | 4.87 µM | 12.3
Cc1sc2nc(-c3ccccn3)c(/C=N/N=C(N)N)n2c1C | 50.8 µM | > 58.3 µM | 15.5 µM | 13.5 µM | 9.13 µM |  | 21.4 µM |  | 9.81 µM | 3.93 | 10.2 | 4.53 µM | 28.6 µM | 25.6 µM | 5.74 µM | 4.5 µM | 4 µM | 7.99
O=C1OCC2=C1C(c1cccc(F)c1)c1cc3c(cc1N2CCO)OCCO3 (centres undefined) | 0.831 µM | > 50 µM | > 50 µM | > 50 µM | > 50 µM |  | > 50 µM |  | > 50 µM | 0.203 | > 50 | 0.305 µM | 0.141 µM | 0.333 µM | 3.18 µM | 0.186 µM | 1.5 µM | 0.276
CC1=C[C@H]2c3c(c(O)c(O)c4oc5cc(O)cc(O)c5c(=O)c34)[C@H](c3cc(O)c(O)c4oc5cc(O)cc(O)c5c(=O)c34)[C@H]2C(C)(C)C1 | 3.89 µM and 4.79 µM | 5.26 µM and 17 µM | 5.88 µM and 5.25 µM | 4.69 µM and 3.5 µM | 3.44 µM and 4.28 µM |  | 5.17 µM and 6.41 µM |  | 4.1 µM and 5.31 µM | 2.78 | 26 | 1.73 µM and 1.98 µM | 1.16 µM and 1.69 µM | 1.36 µM and 2.05 µM | 2.16 µM and 1.99 µM | 1.26 µM and 1.28 µM | 1.5 µM and 1.76 µM | 2.41
O=C(Cc1ccccc1)Nc1nnc(CCSCCc2nnc(NC(=O)Cc3ccccc3)s2)s1 | > 100 µM | > 100 µM | 97.4 µM | > 100 µM | > 100 µM |  | > 100 µM |  | 48.9 µM | 8.13 | > 100 | 13.5 µM | 22.8 µM | 25.9 µM | 29.9 µM | > 100 µM | 13.2 µM | 16.5
OC(COc1ccc(Cl)cc1Cl)CN1CCCC1 (centres undefined) | > 100 µM | > 100 µM | > 100 µM | > 100 µM | > 100 µM |  | > 100 µM |  | > 100 µM |  | > 100 |  |  |  |  |  |  | 
CC(C)C(NC(=O)OC(C)(C)C)C(=O)N(C)C(Cc1ccccc1)C(=O)N(C)C(C(=O)N(C)C(C(=O)OCc1ccccc1)C(C)C)C(C)C (centres undefined) (Boc-V[NMeF][NMeV][NMeV]-OBn; configuration not given here) | > 100 µM | > 100 µM | > 100 µM | > 100 µM |  |  |  | > 100 | > 100 µM |  |  |  |  |  |  |  |  | 
Cc1cc(C)cc(Nc2nccc(-c3c(-c4ccc(F)cc4)ncn3C3CCNCC3)n2)c1 | 3.25 µM | 1.67 µM | 5.12 µM | 3.07 µM | 3.26 µM |  | 4.09 µM |  | 3.39 µM | 1.42 | 3.79 | 1.61 µM | 1.75 µM | 0.312 µM | 1.67 µM | 1.44 µM | 1.78 µM | 2.04
Cn1cc(-c2csc(-c3cn(CCN4CCOCC4)c4ccc(F)cc34)n2)c2cccnc21 | 16.2 µM | 14.1 µM | 5.51 µM | 57.5 µM | 12.3 µM |  | 7.28 µM |  | 12.3 µM | 1.52 | 4.73 | 2.88 µM | 3.16 µM | 2.91 µM | 1.86 µM | 3.62 µM | 3.01 µM | 2.53
CC(=O)NNC(=O)c1nn(-c2ccc(Cl)cc2)cc1OC(C)=O | > 100 µM | > 100 µM | > 100 µM | > 100 µM | > 100 µM |  | > 100 µM |  | > 91.4 µM | 13.7 | 94.6 | 25.7 µM | 21.9 µM | 21.5 µM | 22.1 µM | 23.6 µM | > 56.7 µM | > 64.7
O=C1Nc2ccccc2C12CC(c1ccccc1)=NN2 (centres undefined) | 15 µM | 75.9 µM | > 100 µM | > 100 µM | > 100 µM |  | 46.5 µM |  | > 100 µM | 6.98 | > 100 | 3.89 µM | 3.4 µM | 5.75 µM | 21.9 µM | 3.75 µM | 15.7 µM | 5.46
